ChEMBL document CHEMBL1201862, “PubChem BioAssay data set” (2004)
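Five compound concentrations were applied to cells in 96-well plates for 48 hours; endpoints were derived by simple linear interpolation of the resulting dose-response curve. GI50 marks 50% less growth.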 The source made the active and inactive calls. Rule as the data show it: active = GI50 up to about 1.1 µM and inactive = higher.

Legend:
Assay in all cases: NCI-60 cell line screen, 48 h
MOLT-4 = tested on: MOLT-4
A549 = tested on: A549
NCI-H23 = tested on: NCI-H23
TK-10 = tested on: TK-10
CAKI-1 = tested on: CAKI-1
SF-268 = tested on: SF-268
NCI-H460 = tested on: NCI-H460
UACC-62 = tested on: UACC-62
HT-29 = tested on: HT-29
SW-620 = tested on: SW-620
SNB-19 = tested on: SNB-19
OVCAR-5 = tested on: OVCAR-5
NCI-H522 = tested on: NCI-H522
LOX IMVI = tested on: LOX IMVI
SF-539 = tested on: SF-539
SK-MEL-5 = tested on: SK-MEL-5
SF-295 = tested on: SF-295
SR = tested on: SR

| SMILES | GI50 (MOLT-4) | GI50 (A549) | GI50 (NCI-H23) | GI50 (TK-10) | GI50 (CAKI-1) | GI50 (SF-268) | GI50 (NCI-H460) | GI50 (UACC-62) | GI50 (HT-29) | GI50 (SW-620) | GI50 (SNB-19) | GI50 (OVCAR-5) | GI50 (NCI-H522) | GI50 (LOX IMVI) | GI50 (SF-539) | GI50 (SK-MEL-5) | GI50 (SF-295) | GI50 (SR) |
| --- | --- | --- | --- | --- | --- | --- | --- | --- | --- | --- | --- | --- | --- | --- | --- | --- | --- | --- |
| CCCCCCCCCCCCCCC(O)C1CCC(C(O)CCC(O)CCCCCC(O)CC2=CC(C)OC2=O)O1 (stereo not given) | 0.64 µM (active) | 2.2 µM (inactive) | < 0.01 µM (active) | 4.27 µM (inactive) | 8.13 µM (inactive) | 0.832 µM (active) | 1.79 µM (inactive) | 2.33 µM (inactive) | 1.82 µM (inactive) | 2.52 µM (inactive) | 1.81 µM (inactive) | 4.4 µM (inactive) | 1.14 µM (inactive) | 1.18 µM (inactive) | 1.3 µM (inactive) | 0.0131 µM (active) | 1.26 µM (inactive) | – |
| C[C@]12CCC(=O)C=C1CC[C@@H]1[C@@H]2[C@@H](O)C[C@@]2(C)[C@H]1CC[C@]2(O)C(=O)COC(=O)COCC(=O)O | > 100 µM (inactive) | > 100 µM (inactive) | > 100 µM (inactive) | > 100 µM (inactive) | > 100 µM (inactive) | > 100 µM (inactive) | > 100 µM (inactive) | > 100 µM (inactive) | > 100 µM (inactive) | > 100 µM (inactive) | > 100 µM (inactive) | > 100 µM (inactive) | > 100 µM (inactive) | > 100 µM (inactive) | > 100 µM (inactive) | > 100 µM (inactive) | > 100 µM (inactive) | – |
| CCOC(=O)CNc1nnnn1C1OC(CO)C(O)C1O (stereo not given) | > 100 µM (inactive) | > 100 µM (inactive) | – | > 100 µM (inactive) | > 100 µM (inactive) | > 100 µM (inactive) | > 100 µM (inactive) | > 100 µM (inactive) | > 100 µM (inactive) | > 100 µM (inactive) | – | > 100 µM (inactive) | > 100 µM (inactive) | > 100 µM (inactive) | > 100 µM (inactive) | > 100 µM (inactive) | > 100 µM (inactive) | – |
| COc1ccc(-c2cc(-c3ccco3)c(C#N)c(=O)[nH]2)cc1 | > 100 µM (inactive) | 91.4 µM (inactive) | 86.7 µM (inactive) | 50.8 µM (inactive) | – | 36.7 µM (inactive) | 35.1 µM (inactive) | > 100 µM (inactive) | > 100 µM (inactive) | > 100 µM (inactive) | > 100 µM (inactive) | > 100 µM (inactive) | 20.3 µM (inactive) | > 100 µM (inactive) | 15.8 µM (inactive) | > 10 µM (inactive) | 65 µM (inactive) | – |
| CC(C)(CN1CCCCC1)C(=O)/C=C/c1ccccc1 | 10.3 µM (inactive) | 16.9 µM (inactive) | 15.1 µM (inactive) | 16.3 µM (inactive) | 17.3 µM (inactive) | 13.3 µM (inactive) | 22.4 µM (inactive) | 18.9 µM (inactive) | 7.36 µM (inactive) | 11.6 µM (inactive) | 16.4 µM (inactive) | 19.9 µM (inactive) | 13.2 µM (inactive) | 18.8 µM (inactive) | 10.8 µM (inactive) | 11.9 µM (inactive) | 15.5 µM (inactive) | – |
| COc1cc(-c2cc(O)c3ccccc3n2)cc(OC)c1OC | > 75 µM (inactive) | > 75 µM (inactive) | > 75 µM (inactive) | > 75 µM (inactive) | – | > 75 µM (inactive) | > 75 µM (inactive) | > 75 µM (inactive) | > 75 µM (inactive) | > 75 µM (inactive) | > 75 µM (inactive) | – | > 75 µM (inactive) | > 75 µM (inactive) | > 75 µM (inactive) | – | > 75 µM (inactive) | > 75 µM (inactive) |
| CN(C)CCN(C)C(=O)c1cccc2cccc(C(=O)O)c12 | > 100 µM (inactive) | > 100 µM (inactive) | > 100 µM (inactive) | > 100 µM (inactive) | – | > 100 µM (inactive) | > 100 µM (inactive) | > 100 µM (inactive) | > 100 µM (inactive) | > 100 µM (inactive) | > 100 µM (inactive) | > 100 µM (inactive) | – | > 100 µM (inactive) | > 100 µM (inactive) | > 100 µM (inactive) | > 100 µM (inactive) | > 100 µM (inactive) |
| OCC1=CC(NC2CC(CO)C(O)C(O)C2O)C(O)C(O)C1O (stereo not given) | > 100 µM (inactive) | > 100 µM (inactive) | > 100 µM (inactive) | > 100 µM (inactive) | – | – | > 100 µM (inactive) | > 100 µM (inactive) | > 100 µM (inactive) | > 100 µM (inactive) | > 100 µM (inactive) | – | > 100 µM (inactive) | > 100 µM (inactive) | > 100 µM (inactive) | – | > 100 µM (inactive) | – |
| CC1(C)OCC(C(O)C2OC(C)(C)OC2/C=N\O)O1 (stereo not given) | > 100 µM (inactive) | > 100 µM (inactive) | > 100 µM (inactive) | > 100 µM (inactive) | – | > 100 µM (inactive) | > 100 µM (inactive) | – | > 100 µM (inactive) | > 100 µM (inactive) | > 100 µM (inactive) | > 100 µM (inactive) | > 100 µM (inactive) | > 100 µM (inactive) | > 100 µM (inactive) | > 100 µM (inactive) | > 100 µM (inactive) | – |
| CCCCCCCCSC(SCCCCCCCC)=C1C(=O)N(c2ccccc2)N=C1C | 28.4 µM (inactive) | 26.8 µM (inactive) | 32.8 µM (inactive) | 42.6 µM (inactive) | 26.9 µM (inactive) | > 100 µM (inactive) | 40.3 µM (inactive) | 24.5 µM (inactive) | 45.8 µM (inactive) | 14.5 µM (inactive) | 30.3 µM (inactive) | 80.4 µM (inactive) | 20.3 µM (inactive) | 17.7 µM (inactive) | – | 47 µM (inactive) | 36.9 µM (inactive) | 14.9 µM (inactive) |
| CC1=CC(C)(C)N=C2SC(c3ccc(Cl)cc3)=NN12 | 14.9 µM (inactive) | 40 µM (inactive) | 15.5 µM (inactive) | 37 µM (inactive) | 27.9 µM (inactive) | 27.5 µM (inactive) | 29.2 µM (inactive) | 59.6 µM (inactive) | 12 µM (inactive) | 32.1 µM (inactive) | 50.1 µM (inactive) | 17.6 µM (inactive) | 15.6 µM (inactive) | 40.1 µM (inactive) | 31.6 µM (inactive) | 15.5 µM (inactive) | 31.2 µM (inactive) | – |
| CC12CC[C@@H](C(C)(C)O)C1[C@@H](O)CC1(C)C2CCC2[C@@]3(C)CC[C@H](O)C(C)(C)C3C(O)C[C@]21C (stereo not given in full) | 4.07 µM (inactive) | 11.5 µM (inactive) | 16.1 µM (inactive) | 16.4 µM (inactive) | – | 14.9 µM (inactive) | 15.3 µM (inactive) | 15.6 µM (inactive) | 12.6 µM (inactive) | 18 µM (inactive) | 21.1 µM (inactive) | 17.5 µM (inactive) | – | – | 15.8 µM (inactive) | 4.07 µM (inactive) | 18.3 µM (inactive) | – |
| Sc1nnc(COc2ccc(Cl)cc2)o1 | > 100 µM (inactive) | > 100 µM (inactive) | > 100 µM (inactive) | > 100 µM (inactive) | > 100 µM (inactive) | > 100 µM (inactive) | > 100 µM (inactive) | > 100 µM (inactive) | > 100 µM (inactive) | 15.5 µM (inactive) | > 100 µM (inactive) | > 100 µM (inactive) | > 100 µM (inactive) | – | > 100 µM (inactive) | > 100 µM (inactive) | > 100 µM (inactive) | – |
| N#Cc1cnsc1 | > 100 µM (inactive) | > 100 µM (inactive) | > 100 µM (inactive) | > 100 µM (inactive) | > 100 µM (inactive) | > 100 µM (inactive) | > 100 µM (inactive) | > 100 µM (inactive) | > 100 µM (inactive) | > 100 µM (inactive) | – | > 100 µM (inactive) | – | > 100 µM (inactive) | > 100 µM (inactive) | > 100 µM (inactive) | > 100 µM (inactive) | > 100 µM (inactive) |
| Cn1c(=O)nc2n(-c3ccc(O)cc3)c3ccccc3nc-2c1=O | 54.5 µM (inactive) | 36.7 µM (inactive) | 23.3 µM (inactive) | > 100 µM (inactive) | 13.7 µM (inactive) | 23.2 µM (inactive) | 11 µM (inactive) | 16.4 µM (inactive) | > 100 µM (inactive) | 76.4 µM (inactive) | > 100 µM (inactive) | > 100 µM (inactive) | > 100 µM (inactive) | – | 5.56 µM (inactive) | 18.7 µM (inactive) | > 100 µM (inactive) | – |
| CC1CCC(C(C)C)C(O[C@@H]2OC(=O)C[C@@H]2Sc2ccccc2)C1 (stereo not given in full) | 12 µM (inactive) | 24.9 µM (inactive) | 26.2 µM (inactive) | 53.3 µM (inactive) | 23.3 µM (inactive) | 24.4 µM (inactive) | 24.5 µM (inactive) | 24.7 µM (inactive) | 17.5 µM (inactive) | 18.2 µM (inactive) | 35.1 µM (inactive) | 43 µM (inactive) | – | 13.1 µM (inactive) | 23.5 µM (inactive) | 16.2 µM (inactive) | 21.1 µM (inactive) | – |
| Cc1c2ccncc2c(C)c2c1[nH]c1ccc(O)c(OCC(F)(F)F)c12 | 2.01 µM (inactive) | 3.9 µM (inactive) | 6.1 µM (inactive) | 13.6 µM (inactive) | 9.62 µM (inactive) | 8.67 µM (inactive) | 2.18 µM (inactive) | 10.5 µM (inactive) | > 7.5 µM (inactive) | 3.55 µM (inactive) | 2.11 µM (inactive) | 12.6 µM (inactive) | 4.5 µM (inactive) | 1.38 µM (inactive) | 6.05 µM (inactive) | 5.56 µM (inactive) | 5.21 µM (inactive) | – |
